Assay results taken from patent publication US8354111B2, “Stable cell binding chimeric peptides” (Hadasit Medical Research Services and Development Ltd., priority 2008, dated 2013).
No end group written: not given here.

Key:
[1] = Toxicity assessment, cell survival of endothelial cells; type: cell-based; settings: bovine, endothelial cells (BAEC), increasing concentrations up to 1,000 ng/ml, 48 hours of exposure
Experimental: (§1) The chimeric peptides of the invention and the peptides from which they are derived were found safe, non-toxic, to normal cells such endothelial cells (BAEC; FIG. 9a) and fibroblasts (FF; FIG. 9B). Cells incubated with increasing concentrations (up to 1,000 ng/ml) of the chimeric peptide (black square), the haptide alone (white/empty circle) or the M-tide alone (white/empty square), maintained 100% survival. Cell survival was measured following 48 hours of exposure to the peptides.

[2] = Toxicity assessment, cell survival of fibroblasts; type: cell-based; settings: human, fibroblasts (FF), increasing concentrations up to 1,000 ng/ml, 48 hours of exposure
Experimental: as §1

With “KTRWYSMKKTTMKVFQKRLDGSVDFKK [chimeric peptide]” the viability at 48 h [1] was 100% and the viability at 48 h [2] was 100%.

With “KTRWYSMKKTTMK [haptide, KTRWYSMKKTTMK, reference compound]” the viability at 48 h [1] was 100% and the viability at 48 h [2] was 100%.

For “VFQKRLDGSVDFKK [M-tide, VFQKR LDGSV DFKK]”, the viability at 48 h [1] was 100% and the viability at 48 h [2] was 100%.
